According to the NIST ThermoML archive (doi:10.1021/acs.jced.9b00102):
Where “and” joins values, the source holds several entries; their conditions need not be identical. Equal values may be shown once. ± gives the expanded uncertainty stated by the source.

How the values were obtained:
[1] = Liquid, Ebulliometric method (Recirculating still)
[2] = refractive index (Na D-line) (dimensionless); conditions: 293.15 K; 101.33 kPa; Liquid; Standard Abbe refractometry

CC(C)CO [2-methyl-1-propanol]
vapor or sublimation pressure ([1]; 303.15 K): 2.01 ± 0.22 kPa | vapor or sublimation pressure ([1]; 323.15 K): 7.11 ± 0.23 kPa | vapor or sublimation pressure ([1]; 343.15 K): 20.47 ± 0.24 kPa | refractive index [2]: 1.3958 ± 0.002

CCC(C)O (stereo unspecified) [butan-2-ol]
vapor or sublimation pressure ([1]; 303.15 K): 3.27 ± 0.23 kPa | vapor or sublimation pressure ([1]; 329.15 K): 14.83 ± 0.23 kPa and 14.37 ± 0.23 kPa | vapor or sublimation pressure ([1]; 343.15 K): 29.58 ± 0.26 kPa | refractive index [2]: 1.3976 ± 0.002

CCCCCC [hexane]
vapor or sublimation pressure ([1]; 303.15 K): 25.09 ± 0.28 kPa | vapor or sublimation pressure ([1]; 323.15 K): 54.3 ± 0.29 kPa | vapor or sublimation pressure ([1]; 329.15 K): 66.87 ± 0.39 kPa and 67.73 ± 0.39 kPa | vapor or sublimation pressure ([1]; 343.15 K): 105.38 ± 0.71 kPa | refractive index [2]: 1.3725 ± 0.002

CCCO [propan-1-ol]
vapor or sublimation pressure ([1]; 303.15 K): 3.9 ± 0.22 kPa | vapor or sublimation pressure ([1]; 313.15 K): 7.02 ± 0.23 kPa and 6.93 ± 0.23 kPa | vapor or sublimation pressure ([1]; 323.15 K): 12.19 ± 0.23 kPa | refractive index [2]: 1.3853 ± 0.002

O [water]
vapor or sublimation pressure ([1]; 303.15 K): 4.27 ± 0.22 kPa | vapor or sublimation pressure ([1]; 313.15 K): 7.44 ± 0.23 kPa and 7.34 ± 0.23 kPa | vapor or sublimation pressure ([1]; 323.15 K): 12.38 ± 0.23 kPa | refractive index [2]: 1.3333 ± 0.002
